Values quoted from earlier work, collected in article PMC10552101 (ACS Omega, 2023).

**Q.** Which onset does the source give for `CNC1CC(c2ccc(Cl)c(Cl)c2)c2ccccc21` (stereo not shown) [LU-19-005, indatraline] here?
**A.** slow onset
